# Assay results published in patent US12201610B2, “Compositions comprising aticaprant” (Janssen Pharmaceuticals, Inc., priority 2022, dated 2025).
# Tests used:
# Type in all cases: in vivo, human
# [1] = Body weight by treatment group (Example 6)
# Method: Treatment with aticaprant as described herein has several advantages over the treatments in the art. […] As used herein, the term “weight gain” refers to an increase in the weight of patient, relative to the weight of the patient before taking aticaprant or the weight of the patient that is assessed at the time of the initial administration of aticaprant. In certain embodiments, the patient may actually see a decrease in overall weight, relative to the weight of the patient before taking aticaprant.
# At the lead-in baseline timepoint, the mean weight for subjects in the placebo group was 76.17 kg compared to 78.66 in the aticaprant group. After 6 weeks in the double-blind treatment phase, the mean weight in the placebo group was 75.75 kg compared to 78.57 kg in the aticaprant group. […] This is unexpected because other adjunctive treatments for MDD result in a mean weight increase. See, Thase M, et al. J Clin Psych. 2015: 76(9), 1224-1231; Thase, J Clin Psych. 2015, 76(9): 1232-1240; El Khalili, Int J Neuropsychopharmacol. 2010, 13, 917-932; Marcus, J. Clin. Psychopharmacol. […] Nashville, Tenn, ACNP, 2008; Earley, American College of Neuropsychopharmacology, 2007, Annual Meeting Abstracts (Boca Raton, Fla, Dec. 9-13, 2007). Nashville, TN, ACNP, 2007). See, Table 45.
# subjects with MDD [2] = test: SMDDS total score (Example 6); conditions: 10 mg; Treatment Week 6; 59 subjects analyzed
# Excerpt: SMDDS is a subjective rating of the patient. The SMDDS is a 16-item PRO measure. Each item is rated by the subject according to a 5-point Likert scale. Subjects respond to each question using a rating scale between 0 (“Not at all” or “Never”) to 4 (“Extremely” or “Always”). The total score ranges […]. The SMDDS uses a 7-day recall period and verbal rating scales. Higher score indicates more severe depressive symptomatology.
# iv. To investigate the effect of aticaprant on symptoms of depression using the Clinical Global Impression-Severity (CGI-S), the patient reported Symptoms of Major Depressive Disorder Scale (SMDDS) and the self-assessment of treatment experience (SATE).
# • (i) Depression: Montgomery-Åsberg Depression Rating Scale (MADRS), Clinical Global Impression-Severity (CGI-S), Symptoms of Major Depressive Disorder Scale (SMDDS), and Self-assessment of treatment experience (SATE) • (ii) Anhedonia: Snaith-Hamilton Pleasure Scale (SHAPS) • (iii) Anxiety: Structured Interview Guide for the Hamilton Anxiety scale (SIGH-A) and HAM-A6 • (iv) Effects on Cognition: The Cognitive and Physical Functioning Questionnaire (CPFQ) • (v) Safety assessments
# subjects with MDD [3] = test: CGI-S total score (Example 6); conditions: 10 mg; 59 subjects analyzed; 'at Treatment' (week not given)
# Excerpt: CGI-S is a scale that rates the severity of the subject's illness at the time of assessment, relative to the clinician's past experience with subjects who have the same diagnosis and improvement with treatment. CGI-S provides an overall clinician-determined summary measure of severity of subject's illness that considers all available information, including knowledge of subject's history, psychosocial circumstances, symptoms, behavior, and impact of symptoms on subject's ability to function. CGI-S evaluates severity of psychopathology on scale of 0 to 7. Subject is assessed on severity of mental illness at time of rating according to: 0=not assessed; 1=normal (not at all ill); 2=borderline mentally ill; 3=mildly ill; 4=moderately ill; 5=markedly ill; 6=severely ill; 7=among most extremely ill patients.
# iv. To investigate the effect of aticaprant on symptoms of depression using the Clinical Global Impression-Severity (CGI-S), the patient reported Symptoms of Major Depressive Disorder Scale (SMDDS) and the self-assessment of treatment experience (SATE). […]
compound,measurement,setting,value
"Cc1cc(C)cc(C2CCCN2Cc2ccc(Oc3ccc(C(N)=O)cc3F)cc2)c1 (stereo not drawn) [aticaprant, 3-fluoro-4-4-2-(3,5-dimethylphenyl)pyrrolidin-1-yl-methylphenoxybenzamide]","Mean weight, mean (SE)","[1]; Lead-in Baseline, n = 85",78.66 (1.65) kg
same,"Mean weight, mean (SE)","[1]; Screening, n = 85",78.42 (1.65) kg
same,"Mean weight, mean (SE)","[1]; Withdrawal Baseline, n = 85",78.57 (1.71) kg
same,mean weight,[1]; after 6 weeks in the double-blind treatment phase,78.57 kg
same,mean weight,[1]; lead-in baseline timepoint,78.66 kg
same,Weight Absolute Change (Withdrawal—Lead-in),[1]; n = 85,-0.09 kg
same,Weight Relative % Change,[1]; n = 85,−0.11%
same,"Change from Treatment Baseline in SMDDS Total Score, Arithmetic Mean (SD)",subjects with MDD [2],−8.03 ± 9.957 Scores on a scale
same,"Change from Treatment Baseline in CGI-S Total Score, Arithmetic Mean (SD)",subjects with MDD [3],−0.92 ± 1.039 Scores on a scale
